Reference: patent publication US20250049738A1, “METHOD OF TREATMENT AND SELECTION OF PATIENTS BENEFITING FROM AGOMELATINE BASED ON EEG MEASUREMENTS” (Alto Neuroscience, Inc., priority 2023, published 2025)

Tests used:
[1] = tested on: circadian rhythm; conditions: in vivo; cited from earlier work
[2] = tested on: patients with major depressive disorder; test: Open-label trials of adjunctive agomelatine 25 mg at bedtime in MDD; baseline EEG models predicting change in MADRS; assay type: in vivo, human
[3] = tested on: unselected depression patients; conditions: monotherapy, meta-analytically calculated; cited from earlier work
[4] = tested on: performance on a trail making task; conditions: versus an SSRI; cited from earlier work
[5] = tested on: sleep measures; conditions: cited from earlier work

## COc1ccc2cccc(CCNC(C)=O)c2c1 [agomelatine, N-[2-(7-methoxynaphthalen-1-yl)ethyl]acetamide]
[1]
  effect on circadian rhythm: phase advance circadian rhythm
[2]; EEG machine learning model
  prediction of agomelatine outcome by relative power: not predictive
[2]; EEG machine learning model, significant at week 4
  prediction of agomelatine outcome by aperiodic exponent: also predictive
[2]; EEG sample entropy machine learning model, cross-validation left-out data of training dataset, all weeks, FIG. 2A
  Cohen's d effect size, predicted responders vs predicted non-responders, change in MADRS: > 0.4
[2]; EEG sample entropy machine learning model, holdout dataset, weeks 4, 6 and 8, FIG. 2B
  Cohen's d, predicted agomelatine responders vs non-responders, observed change in MADRS: ≥ 0.4
[2]; EEG-predicted non-responders (sample entropy model), full sample
  implied agomelatine-placebo difference, d: −0.06
[2]; EEG-predicted responders (sample entropy model), week 8, full sample
  implied agomelatine-placebo response, d: 0.58
[2]; Pz low gamma sample entropy alone, high entropy patients, full sample
  implied agomelatine-placebo difference, d: 0.51
[2]; Pz low gamma sample entropy alone, low entropy patients, full sample
  implied agomelatine-placebo difference, d: 0.0
[2]; REC, Approximate Entropy, lower gamma, Week 1
  d (Cohen's d, prediction of agomelatine outcome): 0.23
[2]; REC, Approximate Entropy, lower gamma, Week 2
  d (Cohen's d, prediction of agomelatine outcome): 0.29
[2]; REC, Approximate Entropy, lower gamma, Week 4
  d (Cohen's d, prediction of agomelatine outcome): 0.46
[2]; REC, Detrended Fluctuation Analysis, lower beta, Week 1
  d (Cohen's d, prediction of agomelatine outcome): 0.49
[2]; REC, Detrended Fluctuation Analysis, lower beta, Week 2
  d (Cohen's d, prediction of agomelatine outcome): 0.44
[2]; REC, Detrended Fluctuation Analysis, lower beta, Week 4
  d (Cohen's d, prediction of agomelatine outcome): 0.41
[2]; REC, Detrended Fluctuation Analysis, upper beta, Week 1
  d (Cohen's d, prediction of agomelatine outcome): 0.19
[2]; REC, Detrended Fluctuation Analysis, upper beta, Week 2
  d (Cohen's d, prediction of agomelatine outcome): 0.20
[2]; REC, Detrended Fluctuation Analysis, upper beta, Week 4
  d (Cohen's d, prediction of agomelatine outcome): 0.25
[2]; REC, Higuchi Fractal Dimension, lower beta, Week 1
  d (Cohen's d, prediction of agomelatine outcome): 0.44
[2]; REC, Higuchi Fractal Dimension, lower beta, Week 2
  d (Cohen's d, prediction of agomelatine outcome): 0.36
[2]; REC, Higuchi Fractal Dimension, lower beta, Week 4
  d (Cohen's d, prediction of agomelatine outcome): 0.28
[2]; REC, Higuchi Fractal Dimension, lower gamma, Week 1
  d (Cohen's d, prediction of agomelatine outcome): 0.64
[2]; REC, Higuchi Fractal Dimension, lower gamma, Week 2
  d (Cohen's d, prediction of agomelatine outcome): 0.58
[2]; REC, Higuchi Fractal Dimension, lower gamma, Week 4
  d (Cohen's d, prediction of agomelatine outcome): 0.57
[2]; REC, Higuchi Fractal Dimension, upper beta, Week 1
  d (Cohen's d, prediction of agomelatine outcome): −0.29
[2]; REC, Higuchi Fractal Dimension, upper beta, Week 2
  d (Cohen's d, prediction of agomelatine outcome): −0.20
[2]; REC, Higuchi Fractal Dimension, upper beta, Week 4
  d (Cohen's d, prediction of agomelatine outcome): −0.05
[2]; REC, Higuchi Fractal Dimension, upper gamma, Week 1
  d (Cohen's d, prediction of agomelatine outcome): 0.16
[2]; REC, Higuchi Fractal Dimension, upper gamma, Week 2
  d (Cohen's d, prediction of agomelatine outcome): 0.16
[2]; REC, Higuchi Fractal Dimension, upper gamma, Week 4
  d (Cohen's d, prediction of agomelatine outcome): 0.21
[2]; REC, Katz Fractal Dimension, lower beta, Week 1
  d (Cohen's d, prediction of agomelatine outcome): 0.47
[2]; REC, Katz Fractal Dimension, lower beta, Week 2
  d (Cohen's d, prediction of agomelatine outcome): 0.42
[2]; REC, Katz Fractal Dimension, lower beta, Week 4
  d (Cohen's d, prediction of agomelatine outcome): 0.37
[2]; REC, Katz Fractal Dimension, lower gamma, Week 1
  d (Cohen's d, prediction of agomelatine outcome): 0.25
[2]; REC, Katz Fractal Dimension, lower gamma, Week 2
  d (Cohen's d, prediction of agomelatine outcome): 0.23
[2]; REC, Katz Fractal Dimension, lower gamma, Week 4
  d (Cohen's d, prediction of agomelatine outcome): 0.23
[2]; REC, Katz Fractal Dimension, upper beta, Week 1
  d (Cohen's d, prediction of agomelatine outcome): 0.42
[2]; REC, Katz Fractal Dimension, upper beta, Week 2
  d (Cohen's d, prediction of agomelatine outcome): 0.40
[2]; REC, Katz Fractal Dimension, upper beta, Week 4
  d (Cohen's d, prediction of agomelatine outcome): 0.42
[2]; REC, Katz Fractal Dimension, upper gamma, Week 1
  d (Cohen's d, prediction of agomelatine outcome): 0.04
[2]; REC, Katz Fractal Dimension, upper gamma, Week 2
  d (Cohen's d, prediction of agomelatine outcome): 0.10
[2]; REC, Katz Fractal Dimension, upper gamma, Week 4
  d (Cohen's d, prediction of agomelatine outcome): 0.23
[2]; REC, Largest Lyapunov Exponent, upper alpha, Week 1
  d (Cohen's d, prediction of agomelatine outcome): 0.10
[2]; REC, Largest Lyapunov Exponent, upper alpha, Week 2
  d (Cohen's d, prediction of agomelatine outcome): 0.12
[2]; REC, Largest Lyapunov Exponent, upper alpha, Week 4
  d (Cohen's d, prediction of agomelatine outcome): 0.18
[2]; REC, Largest Lyapunov Exponent, upper gamma, Week 1
  d (Cohen's d, prediction of agomelatine outcome): −0.02
[2]; REC, Largest Lyapunov Exponent, upper gamma, Week 2
  d (Cohen's d, prediction of agomelatine outcome): 0.08
[2]; REC, Largest Lyapunov Exponent, upper gamma, Week 4
  d (Cohen's d, prediction of agomelatine outcome): 0.29
[2]; REC, Lempel-Ziv Complexity, lower gamma, Week 1
  d (Cohen's d, prediction of agomelatine outcome): −0.06
[2]; REC, Lempel-Ziv Complexity, lower gamma, Week 2
  d (Cohen's d, prediction of agomelatine outcome): 0.01
[2]; REC, Lempel-Ziv Complexity, lower gamma, Week 4
  d (Cohen's d, prediction of agomelatine outcome): 0.15
[2]; REC, Lempel-Ziv Complexity, upper alpha, Week 1
  d (Cohen's d, prediction of agomelatine outcome): 0.21
[2]; REC, Lempel-Ziv Complexity, upper alpha, Week 2
  d (Cohen's d, prediction of agomelatine outcome): 0.17
[2]; REC, Lempel-Ziv Complexity, upper alpha, Week 4
  d (Cohen's d, prediction of agomelatine outcome): 0.13
[2]; REC, Modified Multiscale Entropy, lower alpha, Week 1
  d (Cohen's d, prediction of agomelatine outcome): 0.08
[2]; REC, Modified Multiscale Entropy, lower alpha, Week 2
  d (Cohen's d, prediction of agomelatine outcome): 0.11
[2]; REC, Modified Multiscale Entropy, lower alpha, Week 4
  d (Cohen's d, prediction of agomelatine outcome): 0.19
[2]; REC, Modified Multiscale Entropy, lower gamma, Week 1
  d (Cohen's d, prediction of agomelatine outcome): −0.09
[2]; REC, Modified Multiscale Entropy, lower gamma, Week 2
  d (Cohen's d, prediction of agomelatine outcome): 0.01
[2]; REC, Modified Multiscale Entropy, lower gamma, Week 4
  d (Cohen's d, prediction of agomelatine outcome): 0.21
[2]; REC, Modified Multiscale Entropy, upper alpha, Week 1
  d (Cohen's d, prediction of agomelatine outcome): 0.19
[2]; REC, Modified Multiscale Entropy, upper alpha, Week 2
  d (Cohen's d, prediction of agomelatine outcome): 0.25
[2]; REC, Modified Multiscale Entropy, upper alpha, Week 4
  d (Cohen's d, prediction of agomelatine outcome): 0.39
[2]; REC, Multiscale Entropy, upper alpha, Week 1
  d (Cohen's d, prediction of agomelatine outcome): 0.05
[2]; REO, Approximate Entropy, lower gamma, Week 1
  d (Cohen's d, prediction of agomelatine outcome): −0.15
[2]; REO, Approximate Entropy, lower gamma, Week 2
  d (Cohen's d, prediction of agomelatine outcome): −0.05
[2]; REO, Approximate Entropy, lower gamma, Week 4
  d (Cohen's d, prediction of agomelatine outcome): 0.09
[2]; REO, Detrended Fluctuation Analysis, upper gamma, Week 1
  d (Cohen's d, prediction of agomelatine outcome): 0.37
[2]; REO, Detrended Fluctuation Analysis, upper gamma, Week 2
  d (Cohen's d, prediction of agomelatine outcome): 0.33
[2]; REO, Detrended Fluctuation Analysis, upper gamma, Week 4
  d (Cohen's d, prediction of agomelatine outcome): 0.32
[2]; REO, Higuchi Fractal Dimension, delta, Week 1
  d (Cohen's d, prediction of agomelatine outcome): −0.15
[2]; REO, Higuchi Fractal Dimension, delta, Week 2
  d (Cohen's d, prediction of agomelatine outcome): −0.05
[2]; REO, Higuchi Fractal Dimension, delta, Week 4
  d (Cohen's d, prediction of agomelatine outcome): 0.12
[2]; REO, Higuchi Fractal Dimension, lower beta, Week 1
  d (Cohen's d, prediction of agomelatine outcome): 0.03
[2]; REO, Higuchi Fractal Dimension, lower beta, Week 2
  d (Cohen's d, prediction of agomelatine outcome): 0.03
[2]; REO, Higuchi Fractal Dimension, lower beta, Week 4
  d (Cohen's d, prediction of agomelatine outcome): 0.05
[2]; REO, Higuchi Fractal Dimension, upper gamma, Week 1
  d (Cohen's d, prediction of agomelatine outcome): 0.04
[2]; REO, Higuchi Fractal Dimension, upper gamma, Week 2
  d (Cohen's d, prediction of agomelatine outcome): 0.06
[2]; REO, Higuchi Fractal Dimension, upper gamma, Week 4
  d (Cohen's d, prediction of agomelatine outcome): 0.11
[2]; REO, Katz Fractal Dimension, delta, Week 1
  d (Cohen's d, prediction of agomelatine outcome): 0.04
[2]; REO, Katz Fractal Dimension, delta, Week 2
  d (Cohen's d, prediction of agomelatine outcome): 0.07
[2]; REO, Katz Fractal Dimension, delta, Week 4
  d (Cohen's d, prediction of agomelatine outcome): 0.13
[2]; REO, Katz Fractal Dimension, lower beta, Week 1
  d (Cohen's d, prediction of agomelatine outcome): 0.28
[2]; REO, Katz Fractal Dimension, lower beta, Week 2
  d (Cohen's d, prediction of agomelatine outcome): 0.18
[2]; REO, Katz Fractal Dimension, lower beta, Week 4
  d (Cohen's d, prediction of agomelatine outcome): 0.06
[2]; REO, Katz Fractal Dimension, upper beta, Week 1
  d (Cohen's d, prediction of agomelatine outcome): 0.24
[2]; REO, Katz Fractal Dimension, upper beta, Week 2
  d (Cohen's d, prediction of agomelatine outcome): 0.24
[2]; REO, Katz Fractal Dimension, upper beta, Week 4
  d (Cohen's d, prediction of agomelatine outcome): 0.29
[2]; REO, Largest Lyapunov Exponent, upper alpha, Week 1
  d (Cohen's d, prediction of agomelatine outcome): 0.03
[2]; REO, Largest Lyapunov Exponent, upper alpha, Week 2
  d (Cohen's d, prediction of agomelatine outcome): 0.08
[2]; REO, Largest Lyapunov Exponent, upper alpha, Week 4
  d (Cohen's d, prediction of agomelatine outcome): 0.17
[2]; REO, Largest Lyapunov Exponent, upper gamma, Week 1
  d (Cohen's d, prediction of agomelatine outcome): −0.24
[2]; REO, Largest Lyapunov Exponent, upper gamma, Week 2
  d (Cohen's d, prediction of agomelatine outcome): −0.11
[2]; REO, Largest Lyapunov Exponent, upper gamma, Week 4
  d (Cohen's d, prediction of agomelatine outcome): 0.08
[2]; REO, Lempel-Ziv Complexity, lower gamma, Week 1
  d (Cohen's d, prediction of agomelatine outcome): −0.24
[2]; REO, Lempel-Ziv Complexity, lower gamma, Week 2
  d (Cohen's d, prediction of agomelatine outcome): −0.13
[2]; REO, Lempel-Ziv Complexity, lower gamma, Week 4
  d (Cohen's d, prediction of agomelatine outcome): 0.02
[2]; REO, Lempel-Ziv Complexity, theta, Week 1
  d (Cohen's d, prediction of agomelatine outcome): 0.13
[2]; REO, Lempel-Ziv Complexity, theta, Week 2
  d (Cohen's d, prediction of agomelatine outcome): 0.14
[2]; REO, Lempel-Ziv Complexity, theta, Week 4
  d (Cohen's d, prediction of agomelatine outcome): 0.17
[2]; REO, Lempel-Ziv Complexity, upper beta, Week 1
  d (Cohen's d, prediction of agomelatine outcome): 0.19
[2]; REO, Lempel-Ziv Complexity, upper beta, Week 2
  d (Cohen's d, prediction of agomelatine outcome): 0.21
[2]; REO, Lempel-Ziv Complexity, upper beta, Week 4
  d (Cohen's d, prediction of agomelatine outcome): 0.30
[2]; REO, Modified Multiscale Entropy, upper beta, Week 1
  d (Cohen's d, prediction of agomelatine outcome): 0.08
[2]; REO, Modified Multiscale Entropy, upper beta, Week 2
  d (Cohen's d, prediction of agomelatine outcome): 0.15
[2]; REO, Modified Multiscale Entropy, upper beta, Week 4
  d (Cohen's d, prediction of agomelatine outcome): 0.31
[2]; REO, Multiscale Entropy, lower gamma, Week 1
  d (Cohen's d, prediction of agomelatine outcome): −0.41
[2]; REO, Multiscale Entropy, lower gamma, Week 2
  d (Cohen's d, prediction of agomelatine outcome): −0.21
[2]; REO, Multiscale Entropy, lower gamma, Week 4
  d (Cohen's d, prediction of agomelatine outcome): 0.05
[2]; high = z≥0.27, full study sample, all weeks, FIG. 2C
  MADRS change, high vs low Pz low-gamma sample entropy: strong and statistically significant prediction of treatment outcome across all weeks
[3]
  all-comer effect size d, treatment response to agomelatine versus placebo: 0.26
[4]
  performance on a trail making task: superior to an SSRI
[5]; in contrast to an SSRI
  sleep measures assessed using actigraphic measurements: improve sleep measures
[5]; in vivo
  deep to total sleep ratio: increasing the deep to total sleep ratio
